Assay results published in US20120316105A1, “Polymyxin Derivates Useful As Antibacterial Agents” (priority 2011, published 2012).
Where two headings read alike, the source gives them in different places. Bridge positions count the residues as written; N and C are the ends. Square brackets hold non-standard residues; d marks the D form. Peptide text beside a SMILES is read from it. * marks the point of attachment. Benzoyl(4-OPh) = O=C(c1ccc(Oc2ccccc2)cc1)*; Benzoyl(4-Ph) = O=C(c1ccc(-c2ccccc2)cc1)*; X18 = N#Cc1ccc(-c2cc(C(=O)*)ccc2C#N)cc1; X33 = N#Cc1ccc(-c2cc(C(=O)*)ccc2Cl)cc1; X22 = COc1cccc(-c2cc(C(=O)*)ccn2)c1; X29 = COc1cc(C(=O)*)cc(-c2ccccc2)c1; X34 = COc1ccc(-c2cc(C(=O)*)ccn2)cc1; X15 = O=C(c1cccc(-c2cccc(F)c2)c1)*; X31 = O=C(c1ccnc(-c2ccccc2Cl)c1)*; X23 = O=C(c1cnnc(-c2ccccc2)c1)*; X28 = O=C(c1ccc(Oc2ccccc2)nc1)*; Dab = NCC[C@H](N)C(=O)O; Dap = NC[C@H](N)C(=O)O

Experiments:
[1] = system: PA-1646, polymyxin-resistant clinical isolate of Pseudomonas aeruginosa; assay type: cell-based
Summary of the method: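 Broth dilution MIC and bactericidal (MBC) testing per CLSI methods (M7-A8, M100-S20, M26-A) against polymyxin-resistant clinical P. aeruginosa isolate PA-1646. Compounds tested as trifluoroacetate salts, one as sulfate salt; values in mg/L.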

[2] = system: AB-1649, polymyxin-resistant clinical isolate of Acinetobacter baumannii; assay type: cell-based
Summary of the method: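 Broth dilution MIC per CLSI against the polymyxin-resistant A. baumannii isolate, 2-fold dilutions, overnight incubation, visual read of lowest concentration inhibiting growth. Run in duplicate, lower value reported when within 2-fold; MBC per CLSI M26-A guideline.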

[3] = system: AB-3167, clinical isolate of Acinetobacter baumannii; assay type: cell-based
Summary of the method: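 Broth dilution MIC per CLSI (M7-A8, M100-S20, M26-A for bactericidal), 2-fold dilution series, overnight incubation, visual read of lowest concentration inhibiting growth versus drug-free control. Duplicates run; lower value reported if within 2-fold, otherwise repeated. Compounds tested as trifluoroacetate salts; QC strains and reference compounds required in range.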

[4] = system: PA-1646, polymyxin-resistant clinical isolate of Pseudomonas aeruginosa; assay type: cell-based; remark: listed apart in the source
Summary of the method: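 Broth dilution MIC per CLSI with 2-fold concentration steps, read visually after overnight incubation as lowest concentration inhibiting growth; duplicates within 2-fold, lower value reported, with QC strains and reference compounds. Compounds tested as trifluoroacetate salts, polymyxin B as sulfate.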

[5] = system: Pseudomonas aeruginosa strain PA01; assay type: cell-based
Summary of the method: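 CLSI broth dilution against P. aeruginosa PA01 with two-fold concentration steps and overnight incubation; MIC is lowest concentration visibly inhibiting growth versus drug-free control, in mg/L. Compounds tested as trifluoroacetate salts, in duplicate, lower value reported if within 2-fold; control organisms and reference compounds included.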

[6] = system: AB-1649, polymyxin-resistant clinical isolate of Acinetobacter baumannii; assay type: cell-based; remark: listed apart in the source
Summary of the method: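 MIC and MBC were measured by CLSI broth dilution methods (M7-A8, M100-S20, M26-A) against a polymyxin-resistant clinical isolate and reported in mg/L. Compounds were tested as trifluoroacetate salts, with one exception tested as the sulfate.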

[7] = system: EC-1, mouse virulent strain of Escherichia coli; assay type: cell-based; details: E. coli EC-1; overnight incubation, lower of duplicate values; trifluoroacetate salt (Example 1 and PMB sulfate)
Summary of the method: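 Compounds were tested mostly as trifluoroacetate salts. Duplicate CLSI broth-dilution MICs were read visually after overnight incubation over 2-fold dilutions, with the lower of duplicates within 2-fold taken. QC organisms and reference drugs were included in each run.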

[8] = Cytotoxicity assay (LDH release), hRPTEC; assay type: cell-based, human; details: human
Summary of the method: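 hRPTEC grown 72 h in REGM, then exposed to compounds at 100, 67, 44, 30, 20 and 13 micromolar for 24 h at 37° C, 5% CO2. LDH released into supernatant measured; TC50 (micromolar) derived. Compounds tested as trifluoroacetate salts unless otherwise noted.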

[9] = PA-1646, polymyxin-resistant clinical isolate of
[10] = AB-1649, polymyxin-resistant clinical isolate of

Row | Compound | PA-1646 MBC [1, 9] [µg/mL] | AB-1649 MIC [2, 10] [µg/mL] | AB-3167 MIC ([3]; AB-3167, clinical isolate of) [µg/mL] | PA-1646 MIC [4, 9] [µg/mL] | PA01 MIC ([5]; strain) [µg/mL] | AB-1649 MBC [6, 10] [µg/mL] | EC-1 MIC [7] [µg/mL] | CC50 at 24 h [8] [µM] | PA-1646 MBC ([1]; P. aeruginosa PA-1646, tested as trifluoroacetate salt (Example 1 and PMB as sulfate salt)) [µg/mL] | AB-1649 MIC ([2]; A. baumannii AB-1649, overnight incubation, lower of duplicate values, trifluoroacetate salt (Example 1 and PMB sulfate)) [µg/mL] | AB-3167 MIC ([3]; A. baumannii AB-3167, overnight incubation, lower of duplicate values, trifluoroacetate salt (Example 1 and PMB sulfate)) [µg/mL] | PA-1646 MIC ([4]; P. aeruginosa PA-1646, overnight incubation, lower of duplicate values, trifluoroacetate salt (Example 1 and PMB sulfate)) [µg/mL] | PA01 MIC ([5]; P. aeruginosa PA01, overnight incubation, lower of duplicate values, trifluoroacetate salt (Example 1 and PMB sulfate)) [µg/mL] | AB-1649 MBC ([6]; A. baumannii AB-1649, tested as trifluoroacetate salt (Example 1 and PMB as sulfate salt)) [µg/mL] | CC50 at 24 h ([8]; Human Renal Proximal Tubule Epithelial cells (hRPTEC), hRPTEC, 24 hours treatment, LDH release, Toxic Concentration 50%, read-out: hRPTEC TC50) [µM]
1 | CC(C)C[C@@H]1NC(=O)[C@@H](Cc2ccccc2)NC(=O)[C@H](CCN)NC(=O)[C@@H](NC(=O)[C@H](CN)NC(=O)[C@@H](NC(=O)[C@H](CCN)NC(=O)c2ccc(C#N)c(-c3ccc(C#N)cc3)c2)[C@@H](C)O)CCNC(=O)[C@H]([C@@H](C)O)NC(=O)[C@H](CCN)NC(=O)[C@H](CCN)NC1=O [Example 13] (X18-[Dab]T[Dap][Dab][Dab][dF]L[Dab][Dab]T; lactam 4-C) | 4 | 2 | 0.25 | 2 | 0.5 | 2 | 0.25 | 58 | – | – | – | – | – | – | –
2 | CC(C)C[C@@H]1NC(=O)[C@@H](Cc2ccccc2)NC(=O)[C@H](CCN)NC(=O)[C@@H](NC(=O)[C@H](CN)NC(=O)[C@@H](NC(=O)[C@H](CCN)NC(=O)c2cnnc(-c3ccccc3)c2)[C@@H](C)O)CCNC(=O)[C@H]([C@@H](C)O)NC(=O)[C@H](CCN)NC(=O)[C@H](CCN)NC1=O [Example 11] (X23-[Dab]T[Dap][Dab][Dab][dF]L[Dab][Dab]T; lactam 4-C) | 8 | 2 | 0.25 | 2 | 0.25 | 4 | 0.125 | 84 | – | – | – | – | – | – | –
3 | COc1cccc(-c2cc(C(=O)N[C@@H](CCN)C(=O)N[C@H](C(=O)N[C@@H](CN)C(=O)N[C@H]3CCNC(=O)[C@H]([C@@H](C)O)NC(=O)[C@H](CCN)NC(=O)[C@H](CCN)NC(=O)[C@H](CC(C)C)NC(=O)[C@@H](Cc4ccccc4)NC(=O)[C@H](CCN)NC3=O)[C@@H](C)O)ccn2)c1 [Example 29] (X22-[Dab]T[Dap][Dab][Dab][dF]L[Dab][Dab]T; lactam 4-C) | 32 | 4 | 0.5 | 4 | 1 | 4 | 0.5 | 70 | – | – | – | – | – | – | –
4 | COc1cc(C(=O)N[C@@H](CCN)C(=O)N[C@H](C(=O)N[C@@H](CN)C(=O)N[C@H]2CCNC(=O)[C@H]([C@@H](C)O)NC(=O)[C@H](CCN)NC(=O)[C@H](CCN)NC(=O)[C@H](CC(C)C)NC(=O)[C@@H](Cc3ccccc3)NC(=O)[C@H](CCN)NC2=O)[C@@H](C)O)cc(-c2ccccc2)c1 [Example 17] (X29-[Dab]T[Dap][Dab][Dab][dF]L[Dab][Dab]T; lactam 4-C) | 4 | 4 | 0.25 | 2 | 0.5 | 8 | 0.25 | 26 | – | – | – | – | – | – | –
5 | CC(C)C[C@@H]1NC(=O)[C@@H](Cc2ccccc2)NC(=O)[C@H](CCN)NC(=O)[C@@H](NC(=O)[C@H](CN)NC(=O)[C@@H](NC(=O)[C@H](CCN)NC(=O)c2cccc(-c3cccc(F)c3)c2)[C@@H](C)O)CCNC(=O)[C@H]([C@@H](C)O)NC(=O)[C@H](CCN)NC(=O)[C@H](CCN)NC1=O [Example 18] (X15-[Dab]T[Dap][Dab][Dab][dF]L[Dab][Dab]T; lactam 4-C) | 1 | 2 | 0.5 | 1 | 1 | 2 | 0.25 | 22 | – | – | – | – | – | – | –
6 | CC(C)C[C@@H]1NC(=O)[C@@H](Cc2ccccc2)NC(=O)[C@H](CCN)NC(=O)[C@@H](NC(=O)[C@H](CN)NC(=O)[C@@H](NC(=O)[C@H](CCN)NC(=O)c2ccc(Cl)c(-c3ccc(C#N)cc3)c2)[C@@H](C)O)CCNC(=O)[C@H]([C@@H](C)O)NC(=O)[C@H](CCN)NC(=O)[C@H](CCN)NC1=O [Example 39] (X33-[Dab]T[Dap][Dab][Dab][dF]L[Dab][Dab]T; lactam 4-C) | 4 | 4 | 0.5 | 1 | 1 | 4 | 0.5 | 20 | – | – | – | – | – | – | –
7 | CC(C)C[C@@H]1NC(=O)[C@@H](Cc2ccccc2)NC(=O)[C@H](CCN)NC(=O)[C@@H](NC(=O)[C@H](CN)NC(=O)[C@@H](NC(=O)[C@H](CCN)NC(=O)c2ccnc(-c3ccccc3Cl)c2)[C@@H](C)O)CCNC(=O)[C@H]([C@@H](C)O)NC(=O)[C@H](CCN)NC(=O)[C@H](CCN)NC1=O [Example 4] (X31-[Dab]T[Dap][Dab][Dab][dF]L[Dab][Dab]T; lactam 4-C) | 16 | 1 | 0.25 | 4 | 0.5 | 1 | 0.125 | 86 | – | – | – | – | – | – | –
8 | CC(C)C[C@@H]1NC(=O)[C@@H](Cc2ccccc2)NC(=O)[C@H](CCN)NC(=O)[C@@H](NC(=O)[C@H](CN)NC(=O)[C@@H](NC(=O)[C@H](CCN)NC(=O)c2ccc(-c3ccccc3)cc2)[C@@H](C)O)CCNC(=O)[C@H]([C@@H](C)O)NC(=O)[C@H](CCN)NC(=O)[C@H](CCN)NC1=O [Example 45] ({Benzoyl(4-Ph)}-[Dab]T[Dap][Dab][Dab][dF]L[Dab][Dab]T; lactam 4-C) | 1 | 1 | 0.25 | 0.5 | 0.5 | 1 | 0.25 | 28 | – | – | – | – | – | – | –
9 | CC(C)C[C@@H]1NC(=O)[C@@H](Cc2ccccc2)NC(=O)[C@H](CCN)NC(=O)[C@@H](NC(=O)[C@H](CN)NC(=O)[C@@H](NC(=O)[C@H](CCN)NC(=O)c2ccc(Oc3ccccc3)cc2)[C@@H](C)O)CCNC(=O)[C@H]([C@@H](C)O)NC(=O)[C@H](CCN)NC(=O)[C@H](CCN)NC1=O [Example 42] ({Benzoyl(4-OPh)}-[Dab]T[Dap][Dab][Dab][dF]L[Dab][Dab]T; lactam 4-C) | – | – | – | – | – | – | 0.25 | – | 4 | 1 | 0.25 | 1 | 0.5 | 1 | 27
10 | COc1ccc(-c2cc(C(=O)N[C@@H](CCN)C(=O)N[C@H](C(=O)N[C@@H](CN)C(=O)N[C@H]3CCNC(=O)[C@H]([C@@H](C)O)NC(=O)[C@H](CCN)NC(=O)[C@H](CCN)NC(=O)[C@H](CC(C)C)NC(=O)[C@@H](Cc4ccccc4)NC(=O)[C@H](CCN)NC3=O)[C@@H](C)O)ccn2)cc1 [Example 22] (X34-[Dab]T[Dap][Dab][Dab][dF]L[Dab][Dab]T; lactam 4-C) | 8 | 2 | 0.25 | 2 | 0.5 | 2 | 0.25 | 78 | – | – | – | – | – | – | –
11 | CC(C)C[C@@H]1NC(=O)[C@@H](Cc2ccccc2)NC(=O)[C@H](CCN)NC(=O)[C@@H](NC(=O)[C@H](CN)NC(=O)[C@@H](NC(=O)[C@H](CCN)NC(=O)c2ccc(Oc3ccccc3)nc2)[C@@H](C)O)CCNC(=O)[C@H]([C@@H](C)O)NC(=O)[C@H](CCN)NC(=O)[C@H](CCN)NC1=O [Example 12] (X28-[Dab]T[Dap][Dab][Dab][dF]L[Dab][Dab]T; lactam 4-C) | 16 | 2 | 0.25 | 4 | 1 | 4 | 0.25 | 61 | – | – | – | – | – | – | –
